Experimental data taken from patent US8399466B2, “Composition for regenerative treatment of cartilage disease” (Mitsubishi Tanabe Pharma Corporation, priority 2001, dated 2013).

Columns and labels:
articular chondrocytes = assay: Increase of matrix production of articular chondrocytes (Alcian blue staining of proteoglycan); assay type: cell-based, rabbit; conditions: for Proteoglycan Production (%): cultivation until day 5, vehicle = 100; for matrix production promoting activity: summary of Table 1
Protocol: Four NZW line rabbits (Kitayama Labes., Co Ltd.; male; 4-week-old) were sacrificed with bleeding under ether anesthesia and femur knee joints were collected aseptically. The collected knee joints were stored in phosphate buffer (pH 7.2) containing 0.2% glucose and only the cortical layer of knee joint was scrapped with a surgical knife into a 50 ml tube containing phosphate buffer (pH 7.2) containing 0.2% glucose. The collected knee joint cortical layer was cut into as small sections as possible on a dish with a razor and shaken at 37° C. for 15 minutes in phosphate buffer containing 0.2% glucose, supplied with 10× trypsin-ethylenediamine tetraacetic acid (EDTA)·4 Na salt (GIBCO; Cat. No. 15400-054) (50 ml, with 100 mg of trypsin and 40 mg of EDTA·4Na; pH 7.2). After shaking, the sample was centrifuged (1,400 rpm) to collect precipitates, and the precipitates were washed twice with 40 ml of phosphate buffer containing 0.2% glucose. The washed precipitates were combined with 40 ml of serum-free α-minimum essential medium (MEM: GIBCO; Cat: No. 12571-063) containing 60 mg of collagenase for cell diffusion (Wako Pure Chemical Industries, Ltd., 034-10533) and transferred to a 100 ml beaker containing a sterilized stirrer bar. Under stirring with the stirrer bar, the collagenase digestion was carried on for about 1 hour in a CO2 incubator at 37° C. Cartilage fragments were removed from the collagenase-treated cells using a […] Cell Strainer ([FALCON; Cat. No. 2340]). To the residual treated cells was added 10 ml of α-MEM medium containing 10% fetal calf serum (FCS), and centrifuged (1,400 rpm). The precipitates were washed with 10% FCS-αMEM medium twice, suspended in appropriate volume of the same medium and the resultant suspension was seeded into collagen type II (Wako Pure Chemical Industries, Ltd., 033-13901)-coated plates (48 well) at 20,000 cells/well. On the next day, the medium was replaced with 10% FCS-αMEM medium.
When cells reached to confluent after the medium exchange procedure above, the medium for test group was replaced with test compound-containing medium (including 0.1% dimethylsulfoxide as a vehicle). As a medium to which a test compound is added, 10% FCS-αMEM medium containing 0.2 mM ascorbic acid was used. The day on which test compound-containing medium was added for the first time was defined as “day 1”. The medium exchange with the same medium was again conducted at day 3 and the cultivation continued until day 5. As to the control group, the medium was exchanged at the same time using the same medium as the test group except that it is free of test compound (containing vehicle only), and the cultivation was carried out in the same manner. After completion of cultivation, the supernatant was removed from the culture medium. Cells were fixed by addition of 0.25 ml of neutral buffer containing 4% paraformaldehyde and incubation for 2 hours. Cells were washed three times with 1 ml of phosphate buffer (pH 7.2) and then stained for 4 hours with 0.1% Alcian blue 8GX (Sigma; A3157) dissolved in 0.1 M hydrochloric acid, which Alcian blue selectively stains cartilage matrix proteoglycan. After staining, the cells were washed 3 times with 1 ml of phosphate buffer (pH 7.2). Alcian blue which had stained cartilage matrix was dissolved with 0.25 ml of aqueous 6 M guanidine hydrochloride solution and a portion of the solution was used to determine the absorbance at 620 nm. The amounts of Alcian blue used for staining was calculated from the absorbance, which in turn was used for the estimation of the amount of matrix (proteoglycan).

type II collagen gene = assay: Expression of gene encoding cartilage matrix protein (Northern hybridization), type II collagen; assay type: cell-based, rabbit; conditions: cultured 4 days, control = 100%
Protocol: (§1) Total RNA was extracted with ISOGEN (Nippon Gene Co., Ltd.) from rabbit knee articular chondrocytes cultured for 4 days according to the same manner as Experimental Example 1 in the presence of Compound (1) at a final concentration of 1×10^−4 M or 1×10^−5 M, and 15 μg of the total RNA was dissolved in 4.5 μl of a sterilized water. This solution was combined with 2 μl of 5×MOPS buffer, 3.5 μl of formaldehyde and 10 μl of formamide, and denatured at 90° C. for 15 minutes. The mixture was then electrophoresed on 1% agarose gel in the presence of formaldehyde. After completion of electrophoresis, RNA was transferred to a nylon membrane (Amersham Pharmacia Biotech) overnight by capillary method. The RNA was fixed to the nylon membrane by UV crosslinking and subjected to prehybridization at 60° C. for 2 hours in 50 ml of hybridization solution (6×SSC, 5×Denhart's solution, 0.5% SDS, 100 μg/ml heat-denatured salmon sperm DNA, free of 50% formamide).
(§2) Then, DNA probes of mouse type II collagen gene and human aggrecan. […] The nylon membrane was subjected to an autoradiography and exposed to X-ray film using LAS-1000 (Fuji Photo Film Co., Ltd.) A relative amount of each RNA was measured using Image Gause (Fuji Photo Film Co., Ltd.) and corrected with […] (internal RNA: internal control). The gene expression rate in test group was calculated by assuming that in control group as 100%.

aggrecan gene = assay: Expression of gene encoding cartilage matrix protein (Northern hybridization), aggrecan; assay type: cell-based, rabbit; conditions: cultured 4 days, control = 100%
Protocol: as §1, §2

[1] = system: cAMP hydrolytic PDE expressed in human articular cartilage (fraction Nos. 28-30); assay: Inhibition of cAMP hydrolyzing activity of fraction Nos. 28-30 of human articular cartilage extract; assay type: biochemical
Protocol: From the human knee articular cartilage was isolated on surgery of osteoarthrosis patients. Cartilage portion was scrapped with a surgery knife, washed with ice-cold phosphate buffer and stored at −80° C. The cartilage tissues were milled at −80° C. and then, scattered into pieces with homogenizer (Kinematica A.G., Polytron) in ice-cold homogenization buffer (20 mM Tris-HCl, pH 8.0, 1 mM ethylene glycol bis(β-aminoethylether)-N,N,N′,N′-tetraacetic acid, 1 mM dithiothreitol, 10 μg/ml leupeptin, 5 mM benzamidine, 0.2 mM phenylmethylsulfonyl fluoride, 1 mM sodium azide and 5 mM mercaptoethanol). The resultant homogenate was centrifuged (100,000×g; 30 minutes) to separate supernatant.
The above supernatant was loaded on a Mono Q Sepharose High Performance column (Amersham Pharmacia Biotech) equilibrated with elution buffer (20 mM Tris-HCl, pH 8.0, 1 mM ethylene glycol bis(β-aminoethylether)-N,N,N′,N′-tetraacetic acid, 1 mM dithiothreitol, 2 μg/ml leupeptin, 5 mM benzamidine). After washing the column with 20 ml of elution buffer, proteins were eluted into 1 ml fractions by aqueous sodium chloride solution (concentration gradient: 0 to 1000 mM, 70 ml) under ice-cooling. Each fraction was subjected to the determination of hydrolytic activity (PDE activity) toward cAMP and cGMP as a substrate.
The determination of PDE activity was performed by a radio-labeled nucleic acid assay. That is, the reaction was initiated by adding from 10 to 50 μl of elution fraction to 500 μl of assay buffer (50 mM Tris-HCl, pH 8.0, 5 mM magnesium chloride, 4 mM 2-mercaptoethanol) containing 1 μM of unlabeled cAMP and 22 nM of [^3H]-cAMP (Amersham Pharmacia Biotech).
After incubation at 37° C. for 30 minutes, the reaction was quenched by boiling for 1.5 minutes. Then, 100 μl of 1 mg/ml Crtalus atrox snake venom was added and incubated at 37° C. for 30 minutes. After addition of 500 μl of methanol, the reaction solution was subjected to Dowex column (1×8-400). To each eluate was added a liquid scintillation cocktail and the radio activity was measured.
The inhibitory activity of PDE4 inhibitor on fraction Nos. 28-30 containing potent cAMP hydrolyzing activity was measured according to the above-mentioned radio-labeled nucleic acid assay. The test compounds are Compound (1), Compound (2), Compound (11), Compound (44) and Compound (27).

[2] = system: rabbit articular chondrocytes; assay: Matrix production of rabbit articular chondrocytes in the presence of IL-1; assay type: cell-based; conditions: 1 × 10^−6 M; IL-1β 1 ng/ml; until day 3; vehicle = 100
Protocol: Four NZW line rabbits (Kitayama Labes., Co Ltd.; male; 4-week-old) were sacrificed with bleeding under ether anesthesia and knee joints of femur side were collected aseptically. Only the cortical layer was scrapped with a surgical knife in phosphate buffer (pH 7.2) containing 0.2% glucose and then placed into a 50 ml tube containing phosphate buffered saline containing 0.2% glucose. The collected knee joint cortical layer was cut into as small sections as possible on a dish with a razor, combined with 50 ml of phosphate buffer (100 mg trypsin, 40 mg EDTA·4 Na; pH 7.2) containing 0.2% glucose, supplied with 10× trypsin-ethylenediamine tetraacetic acid tetra sodium salt (EDTA·4Na: GIBCO; Cat. No. 15400-054) and shaken at 37° C. for 15 minutes.
After shaking, the precipitates were collected by centrifugation (1,400 rpm) and washed twice with 40 ml of phosphate buffer (pH 7.2) with 0.2% glucose.
To the washed precipitates was added 40 ml of α-minimum essential medium (MEM: GIBCO; Cat. No. 12571-063) containing 60 mg of collagenase for cell diffusion (Wako Pure Chemical Industries, Ltd., 034-10533) and antibiotics (200 U/ml penicillin G and 200 μg/ml streptomycin sulfate) (GIBCO; Cat. No. 15140-122), and the mixture was transferred to a 100 ml beaker containing a sterilized stirrer bar.
The incubation was conducted in a CO2 incubator at 37° C. for 30 minutes under stirring with a stirrer bar. Deoxyribonuclease I (Takara Shuzo Co., LTD.; Cat. No. 2210A) was then added at a concentration of 70 U/ml. The cultivation was conducted under the same condition for another 30 minutes. The supernatant of the culture was collected in another vessel and the remaining cartilage slips were then cultured again for about 30 minutes in freshly prepared α-minimum essential medium containing 60 mg of collagenase and 70 U/m1 deoxyribonuclease I.
To the previously collected culture supernatant and the last culture, from which cartilage slips had been removed using a 40 μm Cell Strainer (FALCON; Cat. No. 2340), 10 ml of α-minimum essential medium (MEM: GIBCO; Cat. No. 12571-063) containing 10% fetal calf serum (GIBCO Cat. No. 10099-141) and antibiotics (200 U/ml penicillin G and 200 μg/ml streptomycin sulfate) (GIBCO; Cat. No. 15140-122) was added and centrifuged (1,400 rpm, 10 minutes).
The precipitates were washed twice with α-minimum essential medium containing 10% fetal calf serum and antibiotics, suspended with an appropriate volume of the same medium, and seeded into 48-well plates (20,000 cells/well). […]
After staining, the cells were washed 3 times with 1 ml of phosphate buffer (pH 7.2). Alcian blue which had stained cartilage matrix was dissolved with 0.25 ml of 6 M aqueous guanidine hydrochloride solution and a portion of which was used to determine the absorbance at 620 nm. […]

SMILES	Proteoglycan Production (%) (articular chondrocytes; 1 × 10^−5 M)	matrix production promoting activity (articular chondrocytes)	Proteoglycan Production (%) (articular chondrocytes; 1 × 10^−6 M)	Proteoglycan Production (%) [2]	further results
CCOc1cc2cc(CO)c(CO)c(-c3ccn(CCOC)c(=O)c3)c2cc1OCC [Compound (1)]	133%	exert matrix production promoting activity			Proteoglycan Production (%) (articular chondrocytes; 1 × 10^−4 M): 144%; Expression of Type II collagen gene (%) (type II collagen gene; 10^−4 M): 406%; Expression of Type II collagen gene (%) (type II collagen gene; 10^−5 M): 278%; Expression of aggrecan gene (%) (aggrecan gene; 10^−4 M): 4262%; Expression of aggrecan gene (%) (aggrecan gene; 10^−5 M): 2693%; inhibition of the hydrolytic activity of the fraction ([1]; fraction Nos. 28-30, FIG. 4): inhibits the hydrolytic activity of the fraction strongly; IC50 for fraction(s) ([1]; method of Journal of Medicinal Chemistry, vol. 42, 1088-1099 (1999), values only in FIG. 4): consistent with the IC50 of PDE4 inhibition activity described in the same literature
COc1ccc(/C(C)=N/OC(N)=O)cc1OC1CCCC1 [Compound (9)]	138%	exert matrix production promoting activity	128%		
COc1ccc([C@H](Cc2ccncc2)c2ccccc2)cc1OC1CCCC1 [Compound (21)]	120%	exert matrix production promoting activity	115%		
COc1ccc([C@]2(C#N)CC[C@H](C(=O)O)CC2)cc1OC1CCCC1 [Compound (27)]	131%	exert matrix production promoting activity	129%		
COc1cc2c(cc1OC)C(c1ccnc(-n3ccc4c(OCCN5CCOCC5)cccc4c3=O)c1)=N[C@H](CO)C2 [Compound No. 52]				209%	
COc1cc2cc(CO)c(CO)c(-c3ccnc(-n4ccc5ccccc5c4=O)c3)c2cc1OC [Compound No. 56]				168%	
